Measurements published in publication PMC8236452, “Pharmacokinetics and safety of rucaparib in patients with advanced solid tumors and hepatic impairment” (Cancer Chemotherapy and Pharmacology, 2021).

Test system: patients with advanced solid tumors
Assay: Safety and tolerability (TEAEs) after a single oral dose of rucaparib 600 mg
Type: in vivo, human
Conditions: for TEAE: Abdominal pain / TEAE: Cholangitis / TEAE: Hyperbilirubinemia / TEAE: Hypokalemia: Grade 3 event; for TEAE: Multiple organ dysfunction syndrome: Grade 5 event
Procedure: Safety and tolerability assessments comprised adverse events, clinical laboratory parameters, vital signs, 12-lead ECG, physical examination, and ECOG PS. For part 1 of this study, symptom-associated physical examination and safety laboratory tests, including clinical chemistry, hematology, coagulation, and urinalysis, were performed on day 7 after administration of the first dose of the study medication; 12-lead ECGs were performed 2 and 4 h postdose. All safety assessments were performed at the end of the treatment visit. Treatment-emergent adverse events (TEAEs) were defined as adverse events with an onset date on or after the date of first dose of study treatment until 28 days after the last dose. Causality of treatment-emergent adverse events was evaluated by investigators based on clinical and scientific data for rucaparib, including previously observed and known reactions, temporal relationship of event to rucaparib administration, patient response on […] rechallenge with the drug, medical history and ongoing concomitant conditions, natural course of the disease, potential effects of concomitant medications and interactions with the study drug, and biological plausibility of the event based on mechanism of action of rucaparib.

[1] = Moderate hepatic impairment (NCI-ODWG, n = 8)
[2] = Normal hepatic function (NCI-ODWG, n = 8)

CNCc1ccc(-c2[nH]c3cc(F)cc4c3c2CCNC4=O)cc1 [rucaparib]
TEAE: Anemia [1]: 1 (12.5) n (%)
TEAE: Ascites [1]: 1 (12.5) n (%)
TEAE: Body temperature increased [1]: 1 (12.5) n (%)
TEAE: Conjunctival hemorrhage [1]: 1 (12.5) n (%)
TEAE: Decreased appetite [1]: 0 n (%)
TEAE: Nausea [1]: 0 n (%)
TEAE: Pyrexia [1]: 1 (12.5) n (%)
TEAE: Renal failure [1]: 1 (12.5) n (%)
TEAE: Thrombocytopenia [1]: 1 (12.5) n (%)
TEAE: Urinary tract infection [1]: 1 (12.5) n (%)
TEAEs: Patients with any event [1]: 6 (75.0) n (%)
TEAE: Abdominal pain [1]: 1 (12.5) n (%)
TEAE: Cholangitis [1]: 1 (12.5) n (%)
TEAE: Hyperbilirubinemia [1]: 1 (12.5) n (%)
TEAE: Hypokalemia [1]: 1 (12.5) n (%)
TEAE: Multiple organ dysfunction syndrome [1]: 1 (12.5) n (%)
TEAE: Anemia [2]: 0 n (%)
TEAE: Ascites [2]: 0 n (%)
TEAE: Body temperature increased [2]: 0 n (%)
TEAE: Conjunctival hemorrhage [2]: 0 n (%)
TEAE: Decreased appetite [2]: 1 (12.5) n (%)
TEAE: Nausea [2]: 1 (12.5) n (%)
TEAE: Pyrexia [2]: 0 n (%)
TEAE: Renal failure [2]: 0 n (%)
TEAE: Thrombocytopenia [2]: 0 n (%)
TEAE: Urinary tract infection [2]: 0 n (%)
TEAEs: Patients with any event [2]: 2 (25.0) n (%)
TEAE: Abdominal pain [2]: 0 n (%)
TEAE: Cholangitis [2]: 0 n (%)
TEAE: Hyperbilirubinemia [2]: 0 n (%)
TEAE: Hypokalemia [2]: 0 n (%)
TEAE: Multiple organ dysfunction syndrome [2]: 0 n (%)
TEAE: Anemia (Overall (N = 16)): 1 (6.3) n (%)
TEAE: Ascites (Overall (N = 16)): 1 (6.3) n (%)
TEAE: Body temperature increased (Overall (N = 16)): 1 (6.3) n (%)
TEAE: Conjunctival hemorrhage (Overall (N = 16)): 1 (6.3) n (%)
TEAE: Decreased appetite (Overall (N = 16)): 1 (6.3) n (%)
TEAE: Nausea (Overall (N = 16)): 1 (6.3) n (%)
TEAE: Pyrexia (Overall (N = 16)): 1 (6.3) n (%)
TEAE: Renal failure (Overall (N = 16)): 1 (6.3) n (%)
TEAE: Thrombocytopenia (Overall (N = 16)): 1 (6.3) n (%)
TEAE: Urinary tract infection (Overall (N = 16)): 1 (6.3) n (%)
TEAEs: Patients with any event (Overall (N = 16)): 8 (50.0) n (%)
TEAE: Abdominal pain (Overall (N = 16)): 1 (6.3) n (%)
TEAE: Cholangitis (Overall (N = 16)): 1 (6.3) n (%)
TEAE: Hyperbilirubinemia (Overall (N = 16)): 1 (6.3) n (%)
TEAE: Hypokalemia (Overall (N = 16)): 1 (6.3) n (%)
TEAE: Multiple organ dysfunction syndrome (Overall (N = 16)): 1 (6.3) n (%)
Patients who withdrew from the study due to a TEAE (after completion of PK assessment in Part 1, both in the moderate hepatic impairment group): two
Patients who experienced at least 1 TEAE (all 16 patients): 50%
System Organ Class TEAEs: gastrointestinal disorders (all 16 patients, abdominal pain, ascites, nausea): 18.8%
Patients with at least 1 TEAE of grade 3 or higher (all in the moderate hepatic impairment group): Four
TEAEs considered treatment related (grade 1 anemia and grade 1 thrombocytopenia, one patient, moderate hepatic impairment group): 2 TEAEs
Patients who experienced at least 1 TEAE (moderate hepatic impairment group): 75.0%
Patients who experienced at least 1 TEAE (normal hepatic function group): 25.0%
Trends in clinical laboratory parameters, vital signs, ECG, physical examinations (single oral rucaparib 600 mg): no clinically relevant treatment-related trends observed
